In publication PMC4194318, “Genetic and pharmacological evidence that G2019S LRRK2 confers a hyperkinetic phenotype, resistant to motor decline associated with aging” (Neurobiology of Disease, 2014):

Assays:
[1] = target: T1, LRRK2 (leucine-rich repeat kinase 2) (Mus musculus, UniProt Q5S006); assay: Western blot of LRRK2 pSer935 in NIH3T3 cells, […] min; also ex vivo mouse striatum and cortex; type: cell-based
T1 construct: endogenous LRRK2 in NIH3T3 cells

[2] = target: T2, LRRK2 (leucine-rich repeat kinase 2) (Mus musculus, UniProt Q5S006, G2019S); assay: ex vivo Western blot of LRRK2 pSer935, […] min after […] mg/kg i.p.; type: cell-based
T2 construct: endogenous LRRK2 in striatum of G2019S knock-in mice
T2 sequence (Q5S006 whole entry G2019S): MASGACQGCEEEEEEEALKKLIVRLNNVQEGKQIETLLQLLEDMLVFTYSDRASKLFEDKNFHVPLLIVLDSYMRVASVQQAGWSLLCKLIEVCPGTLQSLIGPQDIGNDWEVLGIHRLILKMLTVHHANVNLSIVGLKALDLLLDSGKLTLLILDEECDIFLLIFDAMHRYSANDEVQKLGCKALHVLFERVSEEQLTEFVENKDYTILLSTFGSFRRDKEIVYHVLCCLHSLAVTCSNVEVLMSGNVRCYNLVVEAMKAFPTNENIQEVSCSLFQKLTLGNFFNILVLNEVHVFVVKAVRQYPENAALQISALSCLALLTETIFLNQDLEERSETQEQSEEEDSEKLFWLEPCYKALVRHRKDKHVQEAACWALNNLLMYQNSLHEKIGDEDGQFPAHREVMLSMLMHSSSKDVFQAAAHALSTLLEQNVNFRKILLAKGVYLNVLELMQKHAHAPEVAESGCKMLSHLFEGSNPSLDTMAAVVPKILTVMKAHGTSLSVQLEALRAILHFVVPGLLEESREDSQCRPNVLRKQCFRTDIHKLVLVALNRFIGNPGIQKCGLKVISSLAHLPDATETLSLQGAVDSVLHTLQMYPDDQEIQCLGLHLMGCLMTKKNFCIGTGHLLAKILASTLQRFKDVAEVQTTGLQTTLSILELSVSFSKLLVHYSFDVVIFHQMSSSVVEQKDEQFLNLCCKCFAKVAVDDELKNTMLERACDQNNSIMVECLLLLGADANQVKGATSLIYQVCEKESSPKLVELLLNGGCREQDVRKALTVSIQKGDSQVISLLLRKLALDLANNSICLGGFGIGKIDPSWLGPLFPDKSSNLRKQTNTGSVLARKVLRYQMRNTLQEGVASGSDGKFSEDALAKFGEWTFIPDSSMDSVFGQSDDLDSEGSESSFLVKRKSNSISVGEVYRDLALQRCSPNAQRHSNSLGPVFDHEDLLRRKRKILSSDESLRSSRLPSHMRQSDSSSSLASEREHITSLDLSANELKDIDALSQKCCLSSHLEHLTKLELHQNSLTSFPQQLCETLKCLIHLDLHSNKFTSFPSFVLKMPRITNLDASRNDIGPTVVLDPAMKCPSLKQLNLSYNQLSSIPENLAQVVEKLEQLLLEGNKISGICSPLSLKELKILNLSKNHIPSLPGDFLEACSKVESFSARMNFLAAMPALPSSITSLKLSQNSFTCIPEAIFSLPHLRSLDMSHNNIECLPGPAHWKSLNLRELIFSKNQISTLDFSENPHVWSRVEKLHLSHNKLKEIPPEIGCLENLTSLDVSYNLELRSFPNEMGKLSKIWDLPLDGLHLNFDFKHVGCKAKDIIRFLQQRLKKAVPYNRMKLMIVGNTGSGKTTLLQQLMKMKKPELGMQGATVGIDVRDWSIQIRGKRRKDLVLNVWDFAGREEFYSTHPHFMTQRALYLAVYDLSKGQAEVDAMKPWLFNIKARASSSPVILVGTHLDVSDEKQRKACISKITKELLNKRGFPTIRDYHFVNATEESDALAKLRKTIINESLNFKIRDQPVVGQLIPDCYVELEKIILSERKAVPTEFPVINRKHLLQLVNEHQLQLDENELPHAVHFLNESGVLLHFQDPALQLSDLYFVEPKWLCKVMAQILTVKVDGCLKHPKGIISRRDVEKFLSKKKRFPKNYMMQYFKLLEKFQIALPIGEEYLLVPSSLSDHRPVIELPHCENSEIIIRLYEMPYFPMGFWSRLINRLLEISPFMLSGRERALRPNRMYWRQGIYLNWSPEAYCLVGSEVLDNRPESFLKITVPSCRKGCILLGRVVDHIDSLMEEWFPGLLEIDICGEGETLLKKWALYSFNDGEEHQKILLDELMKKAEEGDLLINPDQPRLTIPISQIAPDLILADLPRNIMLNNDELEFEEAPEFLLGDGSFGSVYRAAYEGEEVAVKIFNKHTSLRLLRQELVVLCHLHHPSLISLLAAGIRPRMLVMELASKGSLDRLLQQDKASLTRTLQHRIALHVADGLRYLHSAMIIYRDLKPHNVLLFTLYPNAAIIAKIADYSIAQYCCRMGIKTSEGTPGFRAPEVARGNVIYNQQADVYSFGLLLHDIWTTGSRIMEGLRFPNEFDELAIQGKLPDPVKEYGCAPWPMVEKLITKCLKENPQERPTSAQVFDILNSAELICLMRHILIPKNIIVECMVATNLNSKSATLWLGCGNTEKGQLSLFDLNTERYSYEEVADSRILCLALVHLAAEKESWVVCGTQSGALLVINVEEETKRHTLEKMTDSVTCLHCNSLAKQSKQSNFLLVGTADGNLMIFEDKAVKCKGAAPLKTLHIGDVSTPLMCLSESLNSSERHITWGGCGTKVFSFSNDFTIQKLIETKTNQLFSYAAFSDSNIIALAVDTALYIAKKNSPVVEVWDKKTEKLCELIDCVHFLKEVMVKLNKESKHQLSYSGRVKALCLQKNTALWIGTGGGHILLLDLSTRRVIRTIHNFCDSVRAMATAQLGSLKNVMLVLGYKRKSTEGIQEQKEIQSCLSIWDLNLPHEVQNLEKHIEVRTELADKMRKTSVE

T1 sequence (Q5S006 whole entry): as the sequence (Q5S006 whole entry G2019S) above, with S2019G counted along it

Row | IC50 [1] | Compound | ex vivo Western blot of LRRK2 pSer935, 20 min after 1 mg/kg i.p. [2]
1 | 0.38 nM | CC(=O)N1CCc2[nH]c(/C=C3\C(=O)Nc4ccc(OC(C)C)cc43)cc2C1 [Nov-LRRK2-11] | 
2 |  | Cc1cncc2cccc(S(=O)(=O)N3CCCNC[C@@H]3C)c12 [H-1152, (S)-(+)-2-methyl-1-[(4-methyl-5-isoquinoline)sulfonyl]-homopiperazine] | H-1152 attenuated endogenous LRRK2 phosphorylation at Ser935 in striatum but not cerebral cortex of G2019S knock-in (G2019S KI) mice
